Results from US20090136514A1, “Tetracyclines for Treating Ocular Diseases and Disorders” (priority 2005, published 2009).

What was measured:
[1] = system: VEGF-mediated retinal vascular damage; assay: VEGF-induced retinal vascular leakage in rabbits, fundus photography and fluorescein angiography; type: in vivo, Dutch Belted rabbits; design: Leakage, mean score / Hemorrhage/Microaneurism, mean score / Edema, mean score: scale not given here; details: for Edema, mean score / Hemorrhage/Microaneurism, mean score / Leakage, mean score / Edema, Difference (Doxy-Vehicle) / (Kenalog-Vehicle) / Hemorrhage/Microaneurism, Difference (Doxy-Vehicle) / (Kenalog-Vehicle) / Leakage, Difference (Doxy-Vehicle) / (Kenalog-Vehicle) / Edema, Difference (Kenalog-Doxy) / Hemorrhage/Microaneurism, Difference (Kenalog-Doxy) / Leakage, Difference (Kenalog-Doxy): 48 hours post-dosing; for Edema, mean score / Hemorrhage/Microaneurism, mean score / Leakage, mean score: 50 μl intravitreal before VEGF165; for Edema, Difference (Doxy-Vehicle) / (Kenalog-Vehicle) / Hemorrhage/Microaneurism, Difference (Doxy-Vehicle) / (Kenalog-Vehicle) / Leakage, Difference (Doxy-Vehicle) / (Kenalog-Vehicle): difference of mean scores to vehicle; for Edema, Difference (Kenalog-Doxy) / Hemorrhage/Microaneurism, Difference (Kenalog-Doxy) / Leakage, Difference (Kenalog-Doxy): difference of mean scores to Doxy
Procedure: Retinal vascular leakage was induced in rabbits by intravitreal injection of VEGF according to the procedures set forth in Edelman et al., Experimental Eye Research 80:249-258 (2005). The protective effect of doxycycline on VEGF-mediated retinal vascular damage was assessed. A total of 12 Dutch Belted rabbits (Covance) were anesthetized with isoflurane inhalation and topical 0.5% proparacaine hydrochloride and each eye studied (24 eyes total). Four animals received a 50 μl intravitreal injection of 0.025% bovine serum albumin (BSA) in sterile phosphate-buffered saline (PBS) (Dow Pharmaceutical Sciences) (vehicle, eight eyes total). Doxycycline was formulated from anhydrous doxycycline (Dow Pharmaceutical Sciences) and reconstituted as a saturated solution of doxycycline in 0.025% BSA in PBS assayed to be at a final doxycycline concentration of approximately 0.067 weight percent. Four animals received 50 μl of the doxycycline formulation in each eye (eight eyes total). Four animals received 50 μl of a 40 mg/mL solution of triamcinolone acetonide (Kenalog®, Bristol Myers-Squibb) in 0.025% BSA in PBS (positive control, eight eyes total). Each injection was followed by a 50 μl intravitreal injection of a 10 μg/mL solution of recombinant human VEGF165 (Vascular Endothelial Growth Factor 165 amino acid residue variant, R&D Systems) in 0.025% BSA in PBS. A 30-gauge ⅝-inch needle was used for the injections. VEGF was purchased from R&D Systems (Minneapolis, Minn.).
Prior to injections, eyes were prepared for injection with 1% tropicamide (2 drops), followed ten minutes later by phenylephrine hydrochloride 2.5% (2 drops). An ophthalmic Betadine solution was then used to moisten the eyes. […]. After five minutes, the Betadine was washed out of the eyes with sterile saline and proparacaine hydrochloride was delivered to each eye.
Animals were then anesthetized with an intravenous injection of a ketamine/xylazine cocktail (77 mg/mL ketamine, 23 mg/mL xylazine) at 0.1 mL/kg.
Vascular leakage, hemorrhage, and edema were assessed using fundus photography and fluorescein angiography (see Table 1). Rabbits were anesthetized with subcutaneous 100 mg/mL ketamine at 35 mg/kg and 100 mg/mL xylazine at 7 mg/kg, eyes were dilated with topical 1% tropicamide, and angiograms were obtained with a Topeon TRC-501X retinal camera coupled to a personal computer with IMAGEnet 2000 software (Topcon Medical Systems Inc., Paramus, N.J.). Intravenous sodium fluorescein injection (12 mg/kg) was performed 48 hours after intravitreal injection of VEGF. Late-phase angiography was performed 4-6 min after intravenous sodium fluorescein injection, […]

pre-IL-1β = pre-IL-1β cleavage by ELISA in human choroidal cultures; type: cell-based; details: 0.001% to 5.0% doxycycline
diabetic retinopathy [2] = assay: Topical doxycycline in patients suffering from diabetic retinopathy; type: in vivo, Humans; details: between 0.025% and 0.1% daily for one month
Procedure: Ten patients suffering from diabetic retinopathy are treated with topical doxycycline. Two patients each are administered doxycycline at a concentration selected to be between 0.025% and 0.1% daily for one month. The patients are monitored for improvement of macular edema and vascular leakage by fluorescein angiography and scanning ocular fluorophotometry. Decreased vascular leakage in response to doxycycline administration is observed, which leads to a decrease in edema and improved visual acuity in most or all of the patients treated.

diabetic retinopathy [3] = assay: Oral doxycycline in patients suffering from diabetic retinopathy; type: in vivo, Humans; details: 50 mg orally twice a day for eight weeks
Procedure: Ten patients suffering from diabetic retinopathy are treated with oral doxycycline 50 mg orally twice a day for eight weeks. The patients are monitored for improvement of macular edema and vascular leakage by fluorescein angiography and scanning ocular fluorophotometry. Decreased vascular leakage in response to doxycycline administration is observed, which leads to a decrease in edema and improved visual acuity.

[4] = most or all of the patients treated

SMILES	Edema, mean score ([1]; Combined Eyes)	Hemorrhage/Microaneurism, mean score ([1]; Combined Eyes)	Leakage, mean score ([1]; Combined Eyes)	Edema, Difference (Doxy-Vehicle) / (Kenalog-Vehicle) ([1]; Combined Eyes)	Hemorrhage/Microaneurism, Difference (Doxy-Vehicle) / (Kenalog-Vehicle) ([1]; Combined Eyes)	Leakage, Difference (Doxy-Vehicle) / (Kenalog-Vehicle) ([1]; Combined Eyes)	Edema, mean score ([1]; Left Eye)	Hemorrhage/Microaneurism, mean score ([1]; Left Eye)	Leakage, mean score ([1]; Left Eye)	Edema, Difference (Doxy-Vehicle) / (Kenalog-Vehicle) ([1]; Left Eye)	Hemorrhage/Microaneurism, Difference (Doxy-Vehicle) / (Kenalog-Vehicle) ([1]; Left Eye)	Leakage, Difference (Doxy-Vehicle) / (Kenalog-Vehicle) ([1]; Left Eye)	Edema, mean score ([1]; Right Eye)	Hemorrhage/Microaneurism, mean score ([1]; Right Eye)	Leakage, mean score ([1]; Right Eye)	Edema, Difference (Doxy-Vehicle) / (Kenalog-Vehicle) ([1]; Right Eye)	Hemorrhage/Microaneurism, Difference (Doxy-Vehicle) / (Kenalog-Vehicle) ([1]; Right Eye)	Leakage, Difference (Doxy-Vehicle) / (Kenalog-Vehicle) ([1]; Right Eye)	Edema ([1]; combined eyes) [units]	Hemorrhage/microaneurism ([1]; combined eyes) [units]	other results
C[C@H]1c2cccc(O)c2C(O)=C2C(=O)[C@]3(O)C(O)=C(C(N)=O)C(=O)[C@@H](N(C)C)[C@@H]3[C@@H](O)[C@@H]21 [Doxy, doxycycline]	2.00	1.63	2.06	−0.69	−0.94	−0.75	3.25	2.25	3.13	0.50	0.00	0.38	1.75	2	1.75	−0.25	−0.25	−0.50	2.0	1.63	VEGF-mediated retinal vascular damage ([1]; as compared to the rabbits that received vehicle): reduced; Leakage ([1]; combined eyes): 2.06 units; Edema ([1]; left eye): 3.25 units; Hemorrhage/microaneurism ([1]; left eye): 2.25 units; Leakage ([1]; left eye): 3.13 units; Edema ([1]; right eye): 1.75 units; Hemorrhage/microaneurism ([1]; right eye): 2.0 units; Leakage ([1]; right eye): 1.75 units; pre-IL-1β cleavage (pre-IL-1β): correlate directly with increasing doxycycline concentrations; vascular leakage (diabetic retinopathy [2]): Decreased; Edema (diabetic retinopathy [2]; [4]): decrease; visual acuity (diabetic retinopathy [2]; [4]): improved; Edema (diabetic retinopathy [3]): decrease; visual acuity (diabetic retinopathy [3]): improved; vascular leakage (diabetic retinopathy [3]; fluorescein angiography and scanning ocular fluorophotometry): Decreased
CC1(C)O[C@@H]2C[C@H]3[C@@H]4CCC5=CC(=O)C=C[C@]5(C)[C@@]4(F)[C@@H](O)C[C@]3(C)[C@]2(C(=O)CO)O1 [Kenalog, triamcinolone acetonide]	1.13	1.00	0.25	−1.56	−1.56	−2.56	1.25	1.13	0.50	−1.50	−1.13	−2.25	1.13	0.75	0.25	−0.88	−1.50	−2.00	1.13	1.00	Edema, Difference (Kenalog-Doxy) ([1]; Combined Eyes): −0.88; Hemorrhage/Microaneurism, Difference (Kenalog-Doxy) ([1]; Combined Eyes): −0.63; Leakage, Difference (Kenalog-Doxy) ([1]; Combined Eyes): −1.81; Edema, Difference (Kenalog-Doxy) ([1]; Left Eye): −2.00; Hemorrhage/Microaneurism, Difference (Kenalog-Doxy) ([1]; Left Eye): −1.13; Leakage, Difference (Kenalog-Doxy) ([1]; Left Eye): −2.63; Edema, Difference (Kenalog-Doxy) ([1]; Right Eye): −0.63; Hemorrhage/Microaneurism, Difference (Kenalog-Doxy) ([1]; Right Eye): −1.25; Leakage, Difference (Kenalog-Doxy) ([1]; Right Eye): −1.50; Leakage ([1]; combined eyes): 0.25 units; Edema ([1]; left eye): 1.25 units; Hemorrhage/microaneurism ([1]; left eye): 1.13 units; Leakage ([1]; left eye): 0.50 units; Edema ([1]; right eye): 1.13 units; Hemorrhage/microaneurism ([1]; right eye): 0.75 units; Leakage ([1]; right eye): 0.25 units
